Consider 14 compounds from US7902361B2, “Pyrimidin-4-yl-3, 4-thione compounds and their use in therapy” (Cyclacel Limited, priority 2003, dated 2011).

Holding throughout (format): biochemical
One experiment has as its target T1, aurora A (Homo sapiens, UniProt O14965).
T1 sequence (O14965 1-403): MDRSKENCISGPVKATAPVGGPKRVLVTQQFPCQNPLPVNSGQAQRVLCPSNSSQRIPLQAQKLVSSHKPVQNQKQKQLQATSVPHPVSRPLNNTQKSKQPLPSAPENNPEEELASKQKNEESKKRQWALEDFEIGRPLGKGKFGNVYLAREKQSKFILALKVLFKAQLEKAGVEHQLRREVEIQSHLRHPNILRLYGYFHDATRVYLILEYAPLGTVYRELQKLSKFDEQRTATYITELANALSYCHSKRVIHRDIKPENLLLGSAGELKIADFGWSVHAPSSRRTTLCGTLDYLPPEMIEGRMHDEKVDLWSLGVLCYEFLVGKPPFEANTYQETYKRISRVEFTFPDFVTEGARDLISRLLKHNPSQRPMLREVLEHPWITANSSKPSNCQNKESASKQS
In words: Kinase assay aurora A. The following applies: Ki calculated (Cheng-Prusoff) from experimentally determined IC50 and Km,ATP; read-out: Kinase Inhibition Ki Aurora A. As for the experimental part:
(§1) The compounds from the examples above were investigated for their ability to inhibit the enzymatic activity of various protein kinases. This was achieved by measurement of incorporation of radioactive phosphate from ATP into appropriate polypeptide substrates. Recombinant protein kinases and kinase complexes were produced or obtained commercially. Assays were performed using 96-well plates and appropriate assay buffers (typically 25 mM β-glycerophosphate, 20 mM MOPS, 5 mM EGTA, 1 mM DTT, 1 mM […], pH 7.4), into which were added 2-4 μg of active enzyme with appropriate substrates. […] Reactions were stopped on ice, followed by filtration through p81 filterplates or GF/C filterplates (Whatman Polyfiltronics, Kent, UK). After washing 3 times with 75 mM aq orthophosphoric acid, plates were dried, scintillant added and incorporated radioactivity measured in a scintillation counter (TopCount, Packard Instruments, Pangbourne, Berks, UK). Compounds for kinase assay were made up as 10 mM stocks in DMSO and diluted into 10% DMSO in assay buffer.

Another experiment has as its target T2, GSK3β (Homo sapiens, UniProt P49841).
T2 construct: purchased New England Biolabs
The experiment can be described thus: GSK3β in vitro kinase assay. The following applies: recombinant human GSK3β, 100 μM ATP. As to the method: Both isoforms of GSK3 (α and β) are involved in the regulation of glycogen synthase activity—key enzyme in the glycogen metabolism.
A 10-point titration was set up to determine the IC50 values of selected example compounds against GSK3β. Assays were performed using 96-well microtiter plates with a final volume of 25 μL per well. Each assay contained 1.5 units of GSK3β(New England Biolabs), 200 μM CREB phosphopeptide ([…]pSYR, Alta Biosciences), 20 mM Tris HCl pH7.5, 5 mM DTT, 15 mM MgCl2 supplemented with 100 μM ATP and 0.5 μCi of [γ-^32P] ATP plus or minus inhibitor in 2% DMSO. Assays were carried out for 30 minutes at 30° C. before stopping the reaction by the addition of an equal volume of 75 mM aqueous phosphoric acid. Samples were then spotted onto a p81 filterplate (Whatman) and a vacuum was applied. Wells were washed 3 times with 200 μL of dilute aqueous phosphoric acid before the addition of 50 μL Microscint 40 per well. Incorporation of radioactivity was determined on a Topcount microplate scintillation counter (Packard).

In another experiment the target is CDK7/cyclin H (Homo sapiens, UniProt P50613). The experiment can be described thus: Kinase assay CDK7/cyclin H. The following applies: Ki calculated (Cheng-Prusoff) from experimentally determined IC50 and Km,ATP; read-out: Kinase Inhibition Ki CDK7 - cyclin H. As for the experimental part:
(§2) The compounds from the examples above were investigated for their ability to inhibit the enzymatic activity of various protein kinases. This was achieved by measurement of incorporation of radioactive phosphate from ATP into appropriate polypeptide substrates. Recombinant protein kinases and kinase complexes were produced or obtained commercially. Assays were performed using 96-well plates and appropriate assay buffers (typically 25 mM β-glycerophosphate, 20 mM MOPS, 5 mM EGTA, 1 mM DTT, 1 mM […], pH 7.4), into which were added 2-4 μg of active enzyme with appropriate substrates. The reactions were initiated by addition of Mg/ATP mix (15 mM MgCl2+100 μM ATP with 30-50 kBq per well of [γ-^32P]-ATP) and mixtures incubated as required at 30° C. Reactions were stopped on ice, followed by filtration through p81 filterplates or GF/C filterplates (Whatman Polyfiltronics, Kent, UK). After washing 3 times with 75 mM aq orthophosphoric acid, plates were dried, scintillant added and incorporated radioactivity measured in a scintillation counter (TopCount, Packard Instruments, Pangbourne, Berks, UK). Compounds for kinase assay were made up as 10 mM stocks in DMSO and diluted into 10% DMSO in assay buffer.

For another experiment, the target named is CDK1/cyclin B (Homo sapiens, UniProt P06493). The experiment can be described thus: Kinase assay CDK1/cyclin B (radioactive phosphate incorporation). The following applies: Ki calculated (Cheng-Prusoff) from experimentally determined IC50 and Km,ATP; read-out: Kinase Inhibition Ki CDK1 - cyclin B. As to the method:
as §1

The target in the next experiment is CDK9/cyclin T1 (Homo sapiens, UniProt P50750). The experiment can be described thus: Kinase assay CDK9/cyclin T1. The following applies: Ki calculated (Cheng-Prusoff) from experimentally determined IC50 and Km,ATP; read-out: Kinase Inhibition Ki CDK9 - cyclin T1. As to the method:
as §2

The next experiment has as its target CDK2/cyclin E (Homo sapiens, UniProt P24941). In words: Kinase assay CDK2/cyclin E. The note with it: Ki calculated (Cheng-Prusoff) from experimentally determined IC50 and Km,ATP; read-out: Kinase Inhibition Ki CDK2 - cyclin E. As for the experimental part:
as §1

The next experiment deals with CDK2/cyclin A (Homo sapiens, UniProt P24941). In words: Kinase assay CDK2/cyclin A. The following applies: Ki calculated (Cheng-Prusoff) from experimentally determined IC50 and Km,ATP; read-out: Kinase Inhibition Ki CDK2 - cyclin A. As for the experimental part:
as §1

For another experiment, the target named is CDK4/cyclin D1 (Homo sapiens, UniProt P11802). The experiment can be described thus: Kinase assay CDK4/cyclin D1. The following applies: Ki calculated (Cheng-Prusoff) from experimentally determined IC50 and Km,ATP; read-out: Kinase Inhibition Ki CDK4 - cyclin D1. As for the experimental part:
as §2

Sequence of CDK9/cyclin T1 (P50750 whole entry, species assumed): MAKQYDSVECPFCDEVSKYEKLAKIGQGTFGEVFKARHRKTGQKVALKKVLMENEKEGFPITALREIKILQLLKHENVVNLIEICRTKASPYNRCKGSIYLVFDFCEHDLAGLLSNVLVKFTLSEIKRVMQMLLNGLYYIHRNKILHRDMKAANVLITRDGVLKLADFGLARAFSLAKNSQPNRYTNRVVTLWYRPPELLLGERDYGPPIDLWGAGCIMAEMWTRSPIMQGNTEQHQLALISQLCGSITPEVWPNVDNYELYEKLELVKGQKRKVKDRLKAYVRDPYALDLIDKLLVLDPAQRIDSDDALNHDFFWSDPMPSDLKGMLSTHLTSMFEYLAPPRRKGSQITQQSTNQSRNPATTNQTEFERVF
Sequence of CDK9/cyclin T1 (O60563 whole entry partner, species assumed): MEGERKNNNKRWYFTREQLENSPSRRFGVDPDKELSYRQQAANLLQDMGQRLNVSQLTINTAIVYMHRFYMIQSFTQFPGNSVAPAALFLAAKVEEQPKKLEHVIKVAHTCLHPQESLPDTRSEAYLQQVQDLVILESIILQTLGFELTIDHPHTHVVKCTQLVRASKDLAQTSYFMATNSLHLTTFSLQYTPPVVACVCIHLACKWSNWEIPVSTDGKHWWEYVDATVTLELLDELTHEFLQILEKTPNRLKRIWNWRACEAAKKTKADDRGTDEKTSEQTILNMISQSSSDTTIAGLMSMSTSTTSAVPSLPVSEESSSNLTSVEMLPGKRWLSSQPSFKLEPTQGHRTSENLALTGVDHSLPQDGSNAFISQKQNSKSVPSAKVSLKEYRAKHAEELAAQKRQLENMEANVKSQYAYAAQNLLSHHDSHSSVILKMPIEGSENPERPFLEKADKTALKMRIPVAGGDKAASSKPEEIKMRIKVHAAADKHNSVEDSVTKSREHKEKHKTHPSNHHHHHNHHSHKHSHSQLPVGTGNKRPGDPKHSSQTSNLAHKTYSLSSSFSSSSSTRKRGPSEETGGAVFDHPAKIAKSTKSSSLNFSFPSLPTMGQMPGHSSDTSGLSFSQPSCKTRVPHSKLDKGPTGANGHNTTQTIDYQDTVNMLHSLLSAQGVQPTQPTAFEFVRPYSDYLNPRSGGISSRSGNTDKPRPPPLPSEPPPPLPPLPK
Sequence of CDK4/cyclin D1 (P11802 whole entry, species assumed): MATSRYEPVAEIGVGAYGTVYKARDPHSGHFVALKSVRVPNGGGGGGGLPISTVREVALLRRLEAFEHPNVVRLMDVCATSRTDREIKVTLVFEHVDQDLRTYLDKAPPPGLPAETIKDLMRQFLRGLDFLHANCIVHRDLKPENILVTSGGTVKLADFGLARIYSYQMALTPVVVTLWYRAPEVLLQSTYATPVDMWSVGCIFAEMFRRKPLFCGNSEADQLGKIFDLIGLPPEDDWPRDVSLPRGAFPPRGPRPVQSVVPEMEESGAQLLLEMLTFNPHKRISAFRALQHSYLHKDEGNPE
Sequence of CDK4/cyclin D1 (P24385 whole entry partner, species assumed): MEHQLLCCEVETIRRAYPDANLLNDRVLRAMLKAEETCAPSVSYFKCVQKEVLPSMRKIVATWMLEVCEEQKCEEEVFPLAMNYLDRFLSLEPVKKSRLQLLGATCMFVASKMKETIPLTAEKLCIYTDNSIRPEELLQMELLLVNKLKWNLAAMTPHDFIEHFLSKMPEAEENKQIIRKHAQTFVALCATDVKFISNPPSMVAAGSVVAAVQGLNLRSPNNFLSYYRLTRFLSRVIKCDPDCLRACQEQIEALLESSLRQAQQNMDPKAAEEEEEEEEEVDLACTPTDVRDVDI
Sequence of CDK1/cyclin B (P06493 whole entry, species assumed): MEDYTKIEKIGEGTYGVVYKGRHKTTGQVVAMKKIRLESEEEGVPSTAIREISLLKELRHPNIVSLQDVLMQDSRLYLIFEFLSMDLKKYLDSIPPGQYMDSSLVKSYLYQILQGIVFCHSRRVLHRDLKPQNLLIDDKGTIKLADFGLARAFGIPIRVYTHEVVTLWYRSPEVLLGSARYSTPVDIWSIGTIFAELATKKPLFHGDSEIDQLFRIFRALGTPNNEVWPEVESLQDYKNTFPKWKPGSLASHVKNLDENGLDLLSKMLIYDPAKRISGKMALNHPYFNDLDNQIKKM
Sequence of CDK1/cyclin B (P14635 whole entry partner, species assumed): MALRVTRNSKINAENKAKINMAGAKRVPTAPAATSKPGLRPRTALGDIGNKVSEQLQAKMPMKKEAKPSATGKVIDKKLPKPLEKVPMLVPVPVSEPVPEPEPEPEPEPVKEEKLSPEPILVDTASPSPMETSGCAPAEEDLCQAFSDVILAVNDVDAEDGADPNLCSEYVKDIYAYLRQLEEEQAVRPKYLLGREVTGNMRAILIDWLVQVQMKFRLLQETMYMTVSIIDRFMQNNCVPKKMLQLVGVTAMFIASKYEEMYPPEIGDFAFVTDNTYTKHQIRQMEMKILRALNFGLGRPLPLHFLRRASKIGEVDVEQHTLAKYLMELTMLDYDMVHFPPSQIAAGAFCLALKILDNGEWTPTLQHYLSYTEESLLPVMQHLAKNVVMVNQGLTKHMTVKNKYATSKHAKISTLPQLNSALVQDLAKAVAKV
Sequence of CDK7/cyclin H (P50613 whole entry, species assumed): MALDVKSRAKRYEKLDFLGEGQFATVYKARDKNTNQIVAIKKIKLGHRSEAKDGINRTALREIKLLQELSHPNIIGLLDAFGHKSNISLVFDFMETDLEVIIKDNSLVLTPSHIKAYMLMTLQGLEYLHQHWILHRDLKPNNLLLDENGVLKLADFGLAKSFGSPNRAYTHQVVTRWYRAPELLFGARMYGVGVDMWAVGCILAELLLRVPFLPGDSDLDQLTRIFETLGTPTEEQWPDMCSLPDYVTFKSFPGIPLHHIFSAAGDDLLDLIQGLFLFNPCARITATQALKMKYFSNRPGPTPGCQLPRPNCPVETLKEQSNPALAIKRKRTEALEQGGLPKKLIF
Sequence of CDK7/cyclin H (P51946 whole entry partner, species assumed): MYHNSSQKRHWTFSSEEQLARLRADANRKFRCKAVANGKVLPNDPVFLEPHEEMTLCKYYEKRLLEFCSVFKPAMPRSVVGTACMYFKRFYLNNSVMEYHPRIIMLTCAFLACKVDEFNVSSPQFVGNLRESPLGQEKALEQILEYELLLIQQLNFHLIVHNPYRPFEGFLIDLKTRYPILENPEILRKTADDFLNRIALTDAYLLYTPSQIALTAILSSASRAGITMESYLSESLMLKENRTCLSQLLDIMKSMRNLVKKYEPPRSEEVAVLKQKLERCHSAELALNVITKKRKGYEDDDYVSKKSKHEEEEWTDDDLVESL
T2 sequence (P49841 whole entry): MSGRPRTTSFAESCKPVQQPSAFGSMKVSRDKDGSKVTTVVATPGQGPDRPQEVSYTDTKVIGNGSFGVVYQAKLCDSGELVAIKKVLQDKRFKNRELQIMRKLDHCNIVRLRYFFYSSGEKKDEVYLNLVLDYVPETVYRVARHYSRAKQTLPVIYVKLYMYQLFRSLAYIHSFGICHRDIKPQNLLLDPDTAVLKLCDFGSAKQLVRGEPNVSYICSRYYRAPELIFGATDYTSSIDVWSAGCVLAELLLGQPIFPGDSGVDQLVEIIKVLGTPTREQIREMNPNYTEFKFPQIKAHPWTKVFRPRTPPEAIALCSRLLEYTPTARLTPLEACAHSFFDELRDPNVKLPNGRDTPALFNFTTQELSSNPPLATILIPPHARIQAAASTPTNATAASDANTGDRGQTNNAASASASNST

Regarding `Cc1c(-c2ccnc(Nc3ccc(CNC(=O)c4ccccn4)cc3)n2)sc(=O)n1C` [Compound 82, Pyridine-2-carboxylic acid 4-[4-(3,4-dimethyl-2-oxo-2,3-dihydro-thiazol-5-yl)-pyrimidin-2-ylamino]-benzylamide], on aurora A, the Ki was 63 nM. The IC50 at GSK3β stood at 28.1 nM.

As to `COCCNS(=O)(=O)c1ccc(Nc2nccc(-c3sc(=O)n(C)c3C)n2)cc1` [Compound 65, 4-[4-(3,4-Dimethyl-2-oxo-2,3-dihydro-thiazol-5-yl)-pyrimidin-2-ylamino]-N-(2-methoxy-ethyl)-benzenesulfonamide], the Ki on CDK7/cyclin H is 940 nM; at aurora A, 530 nM; at CDK1/cyclin B, 4.1 nM; at CDK9/cyclin T1, 14 nM. Besides, at GSK3β, the IC50 worked out at 9 nM.

For the compound `Cc1c(-c2ccnc(Nc3cccc([N+](=O)[O-])c3)n2)sc(=O)n1C` [Compound 1, 3,4-Dimethyl-5-[2-(3-nitro-phenylamino)-pyrimidin-4-yl]-3H-thiazol-2-one], the Ki is 2.8 nM on CDK7/cyclin H; 10 nM on CDK2/cyclin E; 170 nM on CDK2/cyclin A; 700 nM on aurora A; 1000 nM on CDK1/cyclin B; 0.3 nM on CDK9/cyclin T1. Also, the Ki on CDK4/cyclin D1 was 300 nM.

For `CCn1c(C)c(-c2ccnc(Nc3ccc(Cl)cc3)n2)sc1=O` [Compound 46, 5-[2-(4-Chloro-phenylamino)-pyrimidin-4-yl]-3-ethyl-4-methyl-3H-thiazol-2-one], the Ki was 790 nM on CDK7/cyclin H; 570 nM at CDK2/cyclin E; 400 nM on CDK2/cyclin A; 1100 nM on aurora A; 57 nM on CDK9/cyclin T1. For the same compound, the 50% inhibitory concentration (IC50) at GSK3β amounted to 101 nM.

On to `Cc1c(-c2ccnc(Nc3cccc(S(=O)(=O)N4CCOCC4)c3)n2)sc(=O)n1C` [Compound 79, 3,4-Dimethyl-5-{2-[3-(morpholine-4-sulfonyl)-phenylamino]-pyrimidin-4-yl}-3H-thiazol-2-one], for which the results for the Ki at CDK7/cyclin H, on CDK2/cyclin E and on aurora A were 2600 nM, 1500 nM and 1400 nM, respectively. The IC50 at GSK3β was determined as 35.6 nM.

As for `Cc1c(-c2ccnc(Nc3ccc(CN)cc3)n2)sc(=O)n1C` [Compound 80, 5-[2-(4-Aminomethyl-phenylamino)-pyrimidin-4-yl]-3,4-dimethyl-3H-thiazol-2-one], the Ki at aurora A was 380 nM. Besides, the IC50 at GSK3β worked out at 69.8 nM.

Consider `Cc1c(-c2ccnc(Nc3ccc(N(C)C)c([N+](=O)[O-])c3)n2)sc(=O)n1C` [Compound 22, 5-[2-(4-Dimethylamino-3-nitro-phenylamino)-pyrimidin-4-yl]-3,4-dimethyl-3H-thiazol-2-one], for which the Ki at CDK7/cyclin H is 1.9 nM; at CDK2/cyclin E it was 53 nM; at CDK2/cyclin A it was 0.5 nM; at aurora A it was 110 nM; on CDK1/cyclin B, 82 nM; at CDK9/cyclin T1, 7.2 nM. Moreover, the Ki at CDK4/cyclin D1 was 1300 nM.

Regarding `COc1ccc(C)c(Nc2nccc(-c3sc(=O)n(C)c3C)n2)c1` [Compound 56, 5-[2-(5-Methoxy-2-methyl-phenylamino)-pyrimidin-4-yl]-3,4-dimethyl-3H-thiazol-2-one], the values for the Ki on CDK7/cyclin H, on aurora A and at CDK9/cyclin T1 were 2900 nM, 2600 nM and 460 nM, respectively. Further, the IC50 at GSK3β came to 3500 nM.

On to `Cc1c(-c2ccnc(Nc3cc(N)cc(C(F)(F)F)c3)n2)sc(=O)n1C` [Compound 71, 5-[2-(3-Amino-5-trifluoromethyl-phenylamino)-pyrimidin-4-yl]-3,4-dimethyl-3H-thiazol-2-one], for which the Ki on CDK7/cyclin H was 73 nM; on CDK2/cyclin A, 280 nM; at aurora A, 110 nM; at CDK1/cyclin B, 140 nM; at CDK4/cyclin D1, 170 nM. In addition, at GSK3β, the IC50 was 5.3 nM.

As to `Cc1ccc(Nc2nccc(-c3sc(=O)n(C)c3C)n2)cc1S(=O)(=O)N1CCOCC1` [Compound 78, 3,4-Dimethyl-5-{2-[4-methyl-3-(morpholine-4-sulfonyl)-phenylamino]-pyrimidin-4-yl}-3H-thiazol-2-one], the Ki on CDK7/cyclin H is 1200 nM; at CDK2/cyclin E, 2100 nM; on aurora A, 1100 nM; at CDK9/cyclin T1, 27 nM. Moreover, at GSK3β, the IC50 came to 130 nM.

As for `Cc1cc(Nc2nccc(-c3sc(=O)n(C)c3C)n2)cnc1Cl` [Compound 81, 5-[2-(6-Chloro-5-methyl-pyridin-3-ylamino)-pyrimidin-4-yl]-3,4-dimethyl-3H-thiazol-2-one], on aurora A, the Ki was 500 nM. For the same compound, the IC50 at GSK3β turned out to be 3.2 nM.

Consider `Cc1c(-c2ccnc(Nc3cccc(S(=O)(=O)NC(C)C)c3)n2)sc(=O)n1C` [Compound 74, 3-[4-(3,4-Dimethyl-2-oxo-2,3-dihydro-thiazol-5-yl)-pyrimidin-2-ylamino]-N-isopropyl-benzenesulfonamide], for which the Ki on CDK7/cyclin H was 2700 nM; at CDK2/cyclin E it was 1400 nM; at aurora A it was 870 nM; at CDK9/cyclin T1, 50 nM; at CDK4/cyclin D1, 980 nM. The IC50 at GSK3β was 75 nM.

Take `CCn1c(C)c(-c2ccnc(Nc3ccc(N4CCOCC4)cc3)n2)sc1=O` [Compound 27, 3-Ethyl-4-methyl-5-[2-(4-morpholin-4-yl-phenylamino)-pyrimidin-4-yl]-3H-thiazol-2-one]: the Ki at CDK7/cyclin H is 1600 nM; on CDK2/cyclin E, 500 nM; on CDK2/cyclin A it was 2000 nM; at aurora A it was 33 nM; at CDK9/cyclin T1 it was 690 nM; on CDK4/cyclin D1, 3300 nM.

Regarding `CCn1c(C)c(-c2ccnc(Nc3ccc([N+](=O)[O-])cc3)n2)sc1=O` [Compound 52, 3-Ethyl-4-methyl-5-[2-(4-nitro-phenylamino)-pyrimidin-4-yl]-3H-thiazol-2-one], the Ki on CDK7/cyclin H is 70 nM; at CDK2/cyclin E, 77 nM; at CDK2/cyclin A, 160 nM; on aurora A, 25 nM; at CDK1/cyclin B, 730 nM; on CDK9/cyclin T1, 16 nM. The Ki on CDK4/cyclin D1 was 1200 nM.

Broadly, the Ki is a dissociation constant, usually derived from enzyme kinetics or from competition with a known ligand. The IC50 is the concentration that inhibits the measured activity by half.
